Test results taken from article PMC6270201, “Eco-Friendly Synthesis and Antiproliferative Evaluation of Some Oxygen Substituted Diaryl Ketones” (Molecules, 2013).
Values belong to the molecule of their own block, whether it stands above or below them.

How the values were obtained:
[1] = system: Balb/3T3 non-tumor fibroblasts; assay: MTT reduction assay, non-tumor fibroblasts; type: cell-based; details: Mus musculus, 48 h incubation, mean of at least three experiments, read-out: EC50 ± SEM BALB/3T3
Protocol: (§1) The oxygen-substituted diaryl ketones 3–23 were evaluated for their in vitro antiproliferative activity on a panel of four cell lines, including non-tumor fibroblasts (Balb/3T3) and three human-derived tumor cell lines, namely DU-145 (prostate), T24 (bladder) and MCF7 (breast), using the conventional microculture tetrazolium reduction assay.
(§2) These values were calculated from their effects on MTT reduction in three cancer cell lines and Balb/3T3 non transformed mouse fibroblasts as a function of their concentration during 48 h of incubation. All three cancer cell lines were similarly sensitive to these compounds. […] The biological activity differences of compounds 12 and 22 with respect to their analogues could be attributed to the 3,4,5-trimethoxy substitution on the A-phenyl ring. According to literature precedents, the 3,4,5-trimethoxyphenyl ring is considered essential for the antitubulin activity of a broad variety of antimitotic compounds [36, 38, 39, 40, 41, 42, 43, 44, 45]. […] In this context, only compound 22 have a good mean selectivity index (2.45).
(§3) Human cancer cell lines (T24, DU-145, MCF7) were cultured in high-glucose Dulbecco's modified Eagle medium (Gibco, Grand Island, NY, USA) supplemented with 10% foetal calf serum, penicillin (100 U/mL), and streptomycin (100 μg/mL). Balb/3T3 cells (normal mouse fibroblasts) were cultured in the same medium, except that the foetal calf serum was replaced by 10% newborn calf serum. All cultures were kept at 37 °C in 95% air/5% CO2 at 100% humidity. Phosphate-buffered saline (PBS) was purchased from Gibco. Cells were incubated at the indicated times at 37 °C with or without hydroquinones at various concentrations.
(§4) The cytotoxicity of the bis aryl ketones was assessed by following the reduction of MTT (3-(4,5-dimethylthiazolyl-2)-2,5-diphenyltetrazolium bromide) to formazan blue. Briefly, cells were seeded into 96-well plates at a density of 10,000 cells/well for 24 h and then incubated for 48 h with or without the compounds. Cells were then washed twice with warm PBS and incubated with MTT (0.5 mg/mL) for 2 h at 37 °C. Incubation medium was thereafter discarded and the blue formazan crystals were solubilized by adding 100 μL DMSO/well. The colour solution was subsequently read at 550 nm. Results are expressed as % of MTT reduction compared to untreated control conditions. The calculation of EC50 values was performed by using GraphPad Prism software (San Diego, CA, USA).

[2] = system: DU-145 (prostate) human-derived tumor cell line; assay: MTT reduction antiproliferative assay, DU-145 prostate cells; type: cell-based; details: 48 h incubation, mean of at least three experiments, read-out: EC50 ± SEM DU-145
Protocol: as §1, §2, §3, §4

[3] = system: T24 (bladder) human-derived tumor cell line; assay: MTT reduction antiproliferative assay, T24 bladder cells; type: cell-based; details: 48 h incubation, mean of at least three experiments, read-out: EC50 ± SEM T24
Protocol: as §1, §2, §3, §4

[4] = system: MCF7 (breast) human-derived tumor cell line; assay: MTT reduction antiproliferative assay, MCF7 breast cells; type: cell-based; details: 48 h incubation, mean of at least three experiments, read-out: EC50 ± SEM MCF-7
Protocol: as §1, §2, §3, §4

[5] = system: Balb/3T3 fibroblasts vs T24, DU-145 and MCF7 tumor cells; assay: Mean selective index, fibroblasts versus tumor cells; type: cell-based; details: EC50 values fibroblasts/EC50 values tumor cells
Protocol: These values were calculated from their effects on MTT reduction in three cancer cell lines and Balb/3T3 non transformed mouse fibroblasts as a function of their concentration during 48 h of incubation.

SMILES: COc1cccc2c1C(=O)c1c(O)c3c(c(O)c1C2=O)C[C@@](O)(C(=O)CO)C[C@@H]3O[C@H]1C[C@H](N)[C@H](O)[C@H](C)O1 [DOX, doxorubicin, reference compound]
EC50 [1]: 0.19 ± 0.01 µM
EC50 [2]: 0.42 ± 0.03 µM
EC50 [3]: 0.65 ± 0.07 µM
EC50 [4]: 0.33 ± 0.05 µM
MSI: Mean Selective Index [5]: 0.44

SMILES: CO[C@@]12[C@H](COC(N)=O)C3=C(C(=O)C(C)=C(N)C3=O)N1C[C@@H]1N[C@@H]12 [MIT, mitomycin C, reference compound]
EC50 [1]: 27.3 ± 3.3 µM
EC50 [2]: 14.3 ± 2.6 µM
EC50 [3]: 42.2 ± 5.8 µM
EC50 [4]: 16.8 ± 2.9 µM

SMILES: O=C(c1ccccc1)c1cc(O)ccc1O [compound 3, (2,5-Dihydroxyphenyl)(phenyl)methanone]
melting point: 121 to 122 °C
EC50 [1]: 38.5 ± 5.5 µM
EC50 [2]: 205 ± 21.5 µM
EC50 [3]: 186 ± 20.4 µM
EC50 [4]: 190 ± 19.2 µM
MSI: Mean Selective Index [5]: 0.20

SMILES: Cc1cccc(C(=O)c2cc(O)ccc2O)c1 [compound 5, (2,5-Dihydroxyphenyl)(3'-methylphenyl)methanone]
melting point: 119 to 120 °C
EC50 [1]: 100 ± 9.5 µM
EC50 [2]: 186 ± 17.8 µM
EC50 [3]: 202 ± 15.9 µM
EC50 [4]: 226 ± 24.2 µM
MSI: Mean Selective Index [5]: 0.49

SMILES: Cc1ccc(C(=O)c2cc(O)ccc2O)cc1 [compound 6, (2,5-Dihydroxyphenyl)(4'-methylphenyl)methanone]
melting point: 135 to 136 °C
EC50 [1]: 78.3 ± 6.4 µM
EC50 [2]: 101 ± 9.5 µM
EC50 [3]: 209 ± 19.5 µM
EC50 [4]: 142 ± 15.3 µM
MSI: Mean Selective Index [5]: 0.57

SMILES: COc1cc(C(=O)c2cc(O)ccc2O)ccc1O [compound 11, (2,5-Dihydroxyphenyl)(4'-hydroxy-3'-methoxyphenyl)methanone]
melting point: 221 to 222 °C
EC50 [1]: 78 ± 9.3 µM
EC50 [2]: 168 ± 15.9 µM
EC50 [3]: 154 ± 14.5 µM
EC50 [4]: 177 ± 19.4 µM
MSI: Mean Selective Index [5]: 0.47

SMILES: COc1cc(C(=O)c2cc(O)ccc2O)cc(OC)c1O [compound 13, (2,5-Dihydroxyphenyl)(4'-hydroxy-3',5'-dimethoxyphenyl)methanone]
melting point: 200 to 201 °C
EC50 [1]: 19.1 ± 3.1 µM
EC50 [2]: 113 ± 10.7 µM
EC50 [3]: > 350 µM
EC50 [4]: > 350 µM

SMILES: Cc1cccc(C(=O)c2cc(O)c3ccccc3c2O)c1 [compound 15, (1,4-Dihydroxynaphthalen-2-yl)(3'-methylphenyl)methanone]
melting point: 154 to 155 °C
EC50 [1]: 142 ± 13.9 µM
EC50 [2]: 147 ± 15.9 µM
EC50 [3]: 137 ± 11.7 µM
EC50 [4]: 145 ± 12.7 µM
MSI: Mean Selective Index [5]: 0.99

SMILES: Cc1ccc(C(=O)c2cc(O)c3ccccc3c2O)cc1 [compound 16, (1,4-Dihydroxynaphthalen-2-yl)(4'-methylphenyl)methanone]
melting point: 150 to 151 °C
EC50 [1]: 139 ± 15.2 µM
EC50 [2]: 158 ± 13.7 µM
EC50 [3]: 135 ± 12.8 µM
EC50 [4]: 134 ± 14.9 µM
MSI: Mean Selective Index [5]: 0.98

SMILES: COc1cccc(C(=O)c2cc(O)c3ccccc3c2O)c1 [compound 17, (1,4-Dihydroxynaphthalen-2-yl)(3'-methoxyphenyl)methanone]
melting point: 149 to 150 °C
EC50 [1]: 109 ± 11.1 µM
EC50 [2]: 139 ± 11.3 µM
EC50 [3]: 133 ± 12.4 µM
EC50 [4]: 128 ± 13.6 µM
MSI: Mean Selective Index [5]: 0.82

SMILES: COc1ccc(C(=O)c2cc(O)c3ccccc3c2O)cc1 [compound 18, (1,4-Dihydroxynaphthalen-2-yl)(4'-methoxyphenyl)methanone]
melting point: 150 to 151 °C
EC50 [1]: 107 ± 12.3 µM
EC50 [2]: 77.5 ± 6.5 µM
EC50 [3]: 127 ± 10.6 µM
EC50 [4]: 125 ± 10.2 µM
MSI: Mean Selective Index [5]: 1.03

SMILES: COc1ccc(OC)c(C(=O)c2cc(O)c3ccccc3c2O)c1 [compound 19, (1,4-Dihydroxynaphthalen-2-yl)(2',5'-dimethoxyphenyl)methanone]
melting point: 160 to 161 °C
EC50 [1]: 100 ± 8.9 µM
EC50 [2]: 129 ± 17.2 µM
EC50 [3]: 130 ± 10.1 µM
EC50 [4]: > 310 µM
MSI: Mean Selective Index [5]: 0.77

SMILES: COc1ccc(C(=O)c2cc(O)c3ccccc3c2O)cc1OC [compound 20, (1,4-Dihydroxynaphthalen-2-yl)(3',4'-dimethoxyphenyl)methanone]
melting point: 212 to 213 °C
EC50 [1]: 2.8 ± 0.6 µM
EC50 [2]: 61.8 ± 5.6 µM
EC50 [3]: 46.8 ± 5.1 µM
EC50 [4]: 12.2 ± 3.8 µM
MSI: Mean Selective Index [5]: 0.11

Now from value to molecule, other results behind:

melting point: 104 to 105 °C
EC50 [2]: 172 ± 19.7 µM
EC50 [3]: 172 ± 13.2 µM
EC50 [4]: 181 ± 15.8 µM
SMILES: Cc1ccccc1C(=O)c1cc(O)ccc1O [compound 4, (2,5-Dihydroxyphenyl)(2'-methylphenyl)methanone]
EC50 [1]: 184 ± 17.6 µM
MSI: Mean Selective Index [5]: 1.06

melting point: 97 to 98 °C
EC50 [2]: 166 ± 15.8 µM
EC50 [3]: 210 ± 20.5 µM
EC50 [4]: 154 ± 12.3 µM
SMILES: COc1cccc(C(=O)c2cc(O)ccc2O)c1 [compound 7, (2,5-Dihydroxyphenyl)(3'-methoxyphenyl)methanone]
EC50 [1]: 118 ± 19.5 µM
MSI: Mean Selective Index [5]: 0.68

melting point: 144 to 145 °C
EC50 [2]: 170 ± 15.5 µM
EC50 [3]: 168 ± 12.2 µM
EC50 [4]: 191 ± 17.5 µM
SMILES: COc1ccc(C(=O)c2cc(O)ccc2O)cc1 [compound 8, (2,5-Dihydroxyphenyl)(4'-methoxyphenyl)methanone]
EC50 [1]: 85.2 ± 9.7 µM
MSI: Mean Selective Index [5]: 0.49

melting point: 135 to 136 °C
EC50 [2]: 130 ± 12.5 µM
EC50 [3]: 150 ± 18.4 µM
EC50 [4]: 164 ± 13.8 µM
SMILES: COc1ccc(OC)c(C(=O)c2cc(O)ccc2O)c1 [compound 9, (2,5-Dihydroxyphenyl)(2',5'-dimethoxyphenyl)methanone]
EC50 [1]: 43.7 ± 7.6 µM
MSI: Mean Selective Index [5]: 0.29

melting point: 79 to 81 °C
EC50 [2]: 140 ± 13.6 µM
EC50 [3]: 147 ± 19.2 µM
EC50 [4]: 183 ± 17.7 µM
SMILES: COc1ccc(C(=O)c2cc(O)ccc2O)cc1OC [compound 10, (2,5-Dihydroxyphenyl)(3,4-dimethoxyphenyl)methanone]
EC50 [1]: 35.4 ± 4.7 µM
MSI: Mean Selective Index [5]: 0.23

melting point: 68 to 70 °C
EC50 [2]: 1.2 ± 0.6 µM
EC50 [3]: 3.6 ± 1.4 µM
EC50 [4]: 53.6 ± 6.7 µM
SMILES: COc1cc(C(=O)c2cc(O)ccc2O)cc(OC)c1OC [compound 12, (2,5-Dihydroxyphenyl)(3',4',5'-trimethoxyphenyl)methanone]
EC50 [1]: 1.5 ± 0.4 µM
MSI: Mean Selective Index [5]: 0.57

melting point: 132 to 133 °C
EC50 [2]: 144 ± 17.7 µM
EC50 [3]: 143 ± 9.5 µM
EC50 [4]: 152 ± 14.5 µM
SMILES: Cc1ccccc1C(=O)c1cc(O)c2ccccc2c1O [compound 14, (1,4-Dihydroxynaphthalen-2-yl)(2'-methylphenyl)methanone]
EC50 [1]: 226 ± 25.4 µM
MSI: Mean Selective Index [5]: 1.54
